According to PMC11148772, “Inhibition of protein translational machinery in triple-negative breast cancer as a promising therapeutic strategy” (Cell Reports Medicine, 2024):

Target: YB-1 (Homo sapiens, UniProt P67809)
Assay: Cellular thermal shift assay (CETSA)
Format: binding
Set-up: endogenous in cells; host or cells: MDA-MB-231
Details: MDA-MB-231 cells, 1.5 h
Experimental: MDA-MB-231 cells treated with vehicle control (DMSO) or SU056 were analyzed by CETSA.[53] Cells were grown to 70–80% confluency and then treated with either DMSO (vehicle control) or SU056 (1 μM) for 1.5 h. Cells were then washed twice with PBS and divided into 10 PCR tubes (1 x 10^6 cells/tube in 100 μL PBS). The tubes incubated at different temperatures (37, 41, 44, 47, 50, 53, 56, 59, 63, 67°C) for 3 min in a thermal cycler, followed by 2 min at room temperature. The tubes were snap-frozen in liquid nitrogen, the cells were lysed using a freeze/thaw cycle, and the soluble and insoluble fractions were separated by centrifugation at 14,000 RPM for 30 min at 4°C. […] All samples were analyzed by LC-MS/MS in triplicate.
A Dionex Ultimate Rapid Separation Liquid Chromatography system (Thermo Fisher Scientific) was used to load 3 μL of the combined TMT-labeled peptides onto a PepMap C18 trap column (Thermo Fisher Scientific) with a flow rate set at 5 μL/min for 10 min. […] The flow rate throughout the gradient was set to 0.3 μL/min and each sample was analyzed in triplicates. Eluted peptides were analyzed using an Orbitrap Eclipse Tribrid mass spectrometer (Thermo Fisher Scientific). […] The most abundant precursor ions were subject to collision induced dissociation (CID) with a collisional energy set to […] and detected in the ion trap using Turbo scan rate. […]

## O=C1OCC2=C1C(c1cccc(F)c1)c1cc3c(cc1N2CCO)OCO3 (centres unmarked) [SU056, 9-(3-fluorophenyl)-5-(2-hydroxyethyl)-6,9-dihydro-[1,3]dioxolo[4,5-g]furo[3,4-b]quinolin-8(5H)-one]
1 μM
  stability of translation-associated proteins (eIFs, RPL, RPS): increased the overall stability
  ΔTm at 1 µM: 13.8 °C
